From paper PMC12670405, “Second-Generation AURKA-Targeting PROTACs: Structural Optimization toward in Vivo Degradation in Neuroblastoma” (Journal of Medicinal Chemistry, 2025)

What was measured:
Assay in all cases: KINOMEscan scanMAX
Type in all cases: binding
Conditions in all cases: read-out: Percent Control
AAK1 = molecular target: T1, AAK1 (Homo sapiens, UniProt Q2M2I8)
T1 construct: purchased Eurofins Discovery (DiscoverX KINOMEscan scanMAX)
Protocol: (§1) The kinome-wide binding assay was performed by Eurofins Discovery using the scanMAX screening platform. More information can be found on the Eurofins Discovery Web site.

ABL1-phosphorylated = molecular target: T2, ABL1-phosphorylated (Homo sapiens, UniProt P00519)
T2 construct: purchased Eurofins Discovery (DiscoverX KINOMEscan scanMAX)
Protocol: as §1

AKT3 = molecular target: T3, AKT3 (Homo sapiens, UniProt Q9Y243)
T3 construct: purchased Eurofins Discovery (DiscoverX KINOMEscan scanMAX)
Protocol: as §1

ALK(L1196M) = molecular target: T4, ALK(L1196M) (Homo sapiens, UniProt Q9UM73, L1196M)
T4 construct: purchased Eurofins Discovery (DiscoverX KINOMEscan scanMAX)
Protocol: as §1

ARK5 = molecular target: T5, ARK5 (Homo sapiens, UniProt O60285)
T5 construct: purchased Eurofins Discovery (DiscoverX KINOMEscan scanMAX)
Protocol: as §1

ASK2 = molecular target: T6, ASK2 (Homo sapiens, UniProt O95382)
T6 construct: purchased Eurofins Discovery (DiscoverX KINOMEscan scanMAX)
Protocol: as §1

CDC2L1 = molecular target: T7, CDC2L1 (Homo sapiens, UniProt P21127)
T7 construct: purchased Eurofins Discovery (DiscoverX KINOMEscan scanMAX)
Protocol: as §1

CLK3 = molecular target: T8, CLK3 (Homo sapiens, UniProt P49761)
T8 construct: purchased Eurofins Discovery (DiscoverX KINOMEscan scanMAX)
T8 sequence (P49761 whole entry): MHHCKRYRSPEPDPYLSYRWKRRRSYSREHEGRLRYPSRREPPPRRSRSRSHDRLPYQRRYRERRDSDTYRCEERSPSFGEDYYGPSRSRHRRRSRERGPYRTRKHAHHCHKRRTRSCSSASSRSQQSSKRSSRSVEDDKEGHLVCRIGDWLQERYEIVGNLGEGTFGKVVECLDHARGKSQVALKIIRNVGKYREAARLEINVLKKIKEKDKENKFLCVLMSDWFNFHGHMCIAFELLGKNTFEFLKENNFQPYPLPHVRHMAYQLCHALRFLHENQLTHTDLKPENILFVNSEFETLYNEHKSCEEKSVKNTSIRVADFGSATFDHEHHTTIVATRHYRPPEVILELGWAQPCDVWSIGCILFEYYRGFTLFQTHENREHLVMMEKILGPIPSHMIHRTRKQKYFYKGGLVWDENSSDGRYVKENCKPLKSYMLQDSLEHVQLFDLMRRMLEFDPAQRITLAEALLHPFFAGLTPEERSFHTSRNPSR
Protocol: as §1

CSNK1E = molecular target: T9, CSNK1E (Homo sapiens, UniProt P49674)
T9 construct: purchased Eurofins Discovery (DiscoverX KINOMEscan scanMAX)
Protocol: as §1

ERBB2 = molecular target: T10, ERBB2 (Homo sapiens, UniProt P04626)
T10 construct: purchased Eurofins Discovery (DiscoverX KINOMEscan scanMAX)
Protocol: as §1

ERK1 = molecular target: T11, ERK1 (Homo sapiens, UniProt P27361)
T11 construct: purchased Eurofins Discovery (DiscoverX KINOMEscan scanMAX)
T11 sequence (P27361 whole entry): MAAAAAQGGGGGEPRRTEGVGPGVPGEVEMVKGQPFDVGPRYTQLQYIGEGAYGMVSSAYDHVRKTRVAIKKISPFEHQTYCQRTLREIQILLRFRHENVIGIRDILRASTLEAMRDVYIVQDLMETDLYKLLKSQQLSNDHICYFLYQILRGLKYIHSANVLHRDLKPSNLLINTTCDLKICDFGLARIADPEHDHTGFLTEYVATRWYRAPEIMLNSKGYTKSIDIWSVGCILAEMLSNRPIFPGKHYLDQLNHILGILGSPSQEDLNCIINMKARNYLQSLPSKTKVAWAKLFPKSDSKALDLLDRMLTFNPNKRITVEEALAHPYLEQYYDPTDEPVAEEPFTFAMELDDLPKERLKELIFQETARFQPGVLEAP
Protocol: as §1

ERK5 = molecular target: T12, ERK5 (Homo sapiens, UniProt Q13164)
T12 construct: purchased Eurofins Discovery (DiscoverX KINOMEscan scanMAX)
Protocol: as §1

FGFR1 = molecular target: T13, FGFR1 (Homo sapiens, UniProt P11362)
T13 construct: purchased Eurofins Discovery (DiscoverX KINOMEscan scanMAX)
Protocol: as §1

FGFR3 = molecular target: T14, FGFR3 (Homo sapiens, UniProt P22607)
T14 construct: purchased Eurofins Discovery (DiscoverX KINOMEscan scanMAX)
Protocol: as §1

FLT3 = molecular target: T15, FLT3 (Homo sapiens, UniProt P36888)
T15 construct: purchased Eurofins Discovery (DiscoverX KINOMEscan scanMAX)
Protocol: as §1

GRK3 = molecular target: T16, GRK3 (Homo sapiens, UniProt P35626)
T16 construct: purchased Eurofins Discovery (DiscoverX KINOMEscan scanMAX)
Protocol: as §1

IRAK1 = molecular target: T17, IRAK1 (Homo sapiens, UniProt P51617)
T17 construct: purchased Eurofins Discovery (DiscoverX KINOMEscan scanMAX)
Protocol: as §1

JNK1 = molecular target: T18, JNK1 (Homo sapiens, UniProt P45983)
T18 construct: purchased Eurofins Discovery (DiscoverX KINOMEscan scanMAX)
Protocol: as §1

KIT(D816V) = molecular target: T19, KIT(D816V) (Homo sapiens, UniProt P10721, D816V)
T19 construct: purchased Eurofins Discovery (DiscoverX KINOMEscan scanMAX)
Protocol: as §1

LRRK2 = molecular target: T20, LRRK2 (Homo sapiens, UniProt Q5S007)
T20 construct: purchased Eurofins Discovery (DiscoverX KINOMEscan scanMAX)
Protocol: as §1

MST3 = molecular target: T21, MST3 (Homo sapiens, UniProt Q9Y6E0)
T21 construct: purchased Eurofins Discovery (DiscoverX KINOMEscan scanMAX)
Protocol: as §1

MUSK = molecular target: T22, MUSK (Homo sapiens, UniProt O15146)
T22 construct: purchased Eurofins Discovery (DiscoverX KINOMEscan scanMAX)
Protocol: as §1

MYLK4 = molecular target: T23, MYLK4 (Homo sapiens, UniProt Q86YV6)
T23 construct: purchased Eurofins Discovery (DiscoverX KINOMEscan scanMAX)
Protocol: as §1

NDR2 = molecular target: T24, NDR2 (Homo sapiens, UniProt Q9Y2H1)
T24 construct: purchased Eurofins Discovery (DiscoverX KINOMEscan scanMAX)
Protocol: as §1

PCTK3 = molecular target: T25, PCTK3 (Homo sapiens, UniProt Q07002)
T25 construct: purchased Eurofins Discovery (DiscoverX KINOMEscan scanMAX)
T25 sequence (Q07002 whole entry): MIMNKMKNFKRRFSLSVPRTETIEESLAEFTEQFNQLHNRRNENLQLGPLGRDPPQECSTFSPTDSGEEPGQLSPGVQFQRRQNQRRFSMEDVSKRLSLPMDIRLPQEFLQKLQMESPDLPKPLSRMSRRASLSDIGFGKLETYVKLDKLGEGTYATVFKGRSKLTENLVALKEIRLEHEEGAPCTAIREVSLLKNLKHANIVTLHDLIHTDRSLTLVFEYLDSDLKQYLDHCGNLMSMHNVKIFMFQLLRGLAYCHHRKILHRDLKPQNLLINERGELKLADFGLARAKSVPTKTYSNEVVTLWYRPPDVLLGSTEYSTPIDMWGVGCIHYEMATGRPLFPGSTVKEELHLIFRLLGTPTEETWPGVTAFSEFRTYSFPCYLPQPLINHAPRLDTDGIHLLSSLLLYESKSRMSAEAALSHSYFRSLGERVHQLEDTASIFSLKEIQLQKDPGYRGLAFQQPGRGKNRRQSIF
Protocol: as §1

PIK3CG = molecular target: T26, PIK3CG (Homo sapiens, UniProt P48736)
T26 construct: purchased Eurofins Discovery (DiscoverX KINOMEscan scanMAX)
T26 sequence (P48736 whole entry): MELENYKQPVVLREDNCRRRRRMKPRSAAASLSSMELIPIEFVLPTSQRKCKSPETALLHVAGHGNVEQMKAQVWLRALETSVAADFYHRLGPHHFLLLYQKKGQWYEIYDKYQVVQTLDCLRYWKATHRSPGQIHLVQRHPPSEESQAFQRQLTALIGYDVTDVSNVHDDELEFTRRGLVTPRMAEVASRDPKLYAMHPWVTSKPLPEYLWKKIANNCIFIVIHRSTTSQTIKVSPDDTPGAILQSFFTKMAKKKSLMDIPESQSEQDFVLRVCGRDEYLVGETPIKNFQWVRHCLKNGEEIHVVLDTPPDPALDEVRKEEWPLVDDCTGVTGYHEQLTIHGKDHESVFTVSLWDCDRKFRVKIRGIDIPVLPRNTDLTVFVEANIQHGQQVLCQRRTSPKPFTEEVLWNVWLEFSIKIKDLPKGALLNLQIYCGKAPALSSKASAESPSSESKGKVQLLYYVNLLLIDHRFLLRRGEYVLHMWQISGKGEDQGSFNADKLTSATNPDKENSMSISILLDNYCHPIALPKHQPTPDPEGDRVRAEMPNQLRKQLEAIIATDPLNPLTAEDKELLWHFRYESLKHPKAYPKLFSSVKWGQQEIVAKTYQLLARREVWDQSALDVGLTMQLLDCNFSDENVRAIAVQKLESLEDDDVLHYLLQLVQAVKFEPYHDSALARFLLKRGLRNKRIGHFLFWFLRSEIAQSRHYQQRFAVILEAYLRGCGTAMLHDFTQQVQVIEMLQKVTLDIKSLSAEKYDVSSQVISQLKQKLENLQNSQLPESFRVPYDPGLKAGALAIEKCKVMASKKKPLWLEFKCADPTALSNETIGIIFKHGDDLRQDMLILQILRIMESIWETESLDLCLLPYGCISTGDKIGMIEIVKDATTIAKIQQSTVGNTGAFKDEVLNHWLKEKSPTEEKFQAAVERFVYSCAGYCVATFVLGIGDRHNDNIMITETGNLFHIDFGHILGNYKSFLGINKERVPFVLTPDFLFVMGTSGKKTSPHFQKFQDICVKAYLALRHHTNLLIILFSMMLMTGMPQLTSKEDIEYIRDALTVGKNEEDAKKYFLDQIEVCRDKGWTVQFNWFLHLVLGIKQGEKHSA
Protocol: as §1

PRKG2 = molecular target: T27, PRKG2 (Homo sapiens, UniProt Q13237)
T27 construct: purchased Eurofins Discovery (DiscoverX KINOMEscan scanMAX)
T27 sequence (Q13237 whole entry): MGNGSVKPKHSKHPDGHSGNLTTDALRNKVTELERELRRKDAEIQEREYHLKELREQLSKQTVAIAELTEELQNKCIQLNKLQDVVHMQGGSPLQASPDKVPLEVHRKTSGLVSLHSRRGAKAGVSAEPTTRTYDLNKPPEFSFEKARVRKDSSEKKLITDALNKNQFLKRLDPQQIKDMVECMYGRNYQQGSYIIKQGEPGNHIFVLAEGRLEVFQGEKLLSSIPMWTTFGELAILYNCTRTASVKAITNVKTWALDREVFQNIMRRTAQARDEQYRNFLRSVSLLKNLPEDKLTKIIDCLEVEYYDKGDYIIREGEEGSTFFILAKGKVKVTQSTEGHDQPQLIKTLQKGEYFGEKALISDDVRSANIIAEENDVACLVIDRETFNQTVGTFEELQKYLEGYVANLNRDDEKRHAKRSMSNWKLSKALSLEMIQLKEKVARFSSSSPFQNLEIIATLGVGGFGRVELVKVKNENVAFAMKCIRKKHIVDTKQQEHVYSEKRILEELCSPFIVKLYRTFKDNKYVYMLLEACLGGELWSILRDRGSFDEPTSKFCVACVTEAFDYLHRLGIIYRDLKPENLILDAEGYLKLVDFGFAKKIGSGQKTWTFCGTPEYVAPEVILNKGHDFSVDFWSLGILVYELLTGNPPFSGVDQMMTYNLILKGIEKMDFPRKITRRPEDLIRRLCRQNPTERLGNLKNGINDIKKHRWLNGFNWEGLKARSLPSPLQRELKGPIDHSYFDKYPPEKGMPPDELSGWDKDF
Protocol: as §1

RET = molecular target: T28, RET (Homo sapiens, UniProt P07949)
T28 construct: purchased Eurofins Discovery (DiscoverX KINOMEscan scanMAX)
Protocol: as §1

STK39 = molecular target: T29, STK39 (Homo sapiens, UniProt Q9UEW8)
T29 construct: purchased Eurofins Discovery (DiscoverX KINOMEscan scanMAX)
Protocol: as §1

TGFBR1 = molecular target: T30, TGFBR1 (Homo sapiens, UniProt P36897)
T30 construct: purchased Eurofins Discovery (DiscoverX KINOMEscan scanMAX)
T30 sequence (P36897 34-503): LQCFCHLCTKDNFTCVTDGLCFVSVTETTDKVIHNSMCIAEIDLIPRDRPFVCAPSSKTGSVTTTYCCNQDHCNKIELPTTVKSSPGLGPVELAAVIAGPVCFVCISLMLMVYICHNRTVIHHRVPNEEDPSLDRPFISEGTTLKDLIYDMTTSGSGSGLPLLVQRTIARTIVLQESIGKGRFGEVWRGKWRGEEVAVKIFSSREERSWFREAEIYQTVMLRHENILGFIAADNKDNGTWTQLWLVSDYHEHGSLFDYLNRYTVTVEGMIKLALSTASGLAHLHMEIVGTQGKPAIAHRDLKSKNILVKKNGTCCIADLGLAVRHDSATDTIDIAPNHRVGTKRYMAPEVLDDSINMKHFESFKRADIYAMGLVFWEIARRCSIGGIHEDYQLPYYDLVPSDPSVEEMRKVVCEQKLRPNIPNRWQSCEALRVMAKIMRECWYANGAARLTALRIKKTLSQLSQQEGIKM
Protocol: as §1

TXK = molecular target: T31, TXK (Homo sapiens, UniProt P42681)
T31 construct: purchased Eurofins Discovery (DiscoverX KINOMEscan scanMAX)
Protocol: as §1

[1] = molecular target: T32, TYK2(JH1domain-catalytic) (Homo sapiens, UniProt P29597)
T32 construct: TYK2(JH1domain-catalytic); purchased Eurofins Discovery (DiscoverX KINOMEscan scanMAX)
Protocol: as §1

YANK3 = molecular target: T33, YANK3 (Homo sapiens, UniProt Q86UX6)
T33 construct: purchased Eurofins Discovery (DiscoverX KINOMEscan scanMAX)
Protocol: as §1

p38-delta = molecular target: T34, p38-delta (Homo sapiens, UniProt O15264)
T34 construct: purchased Eurofins Discovery (DiscoverX KINOMEscan scanMAX)
T34 sequence (O15264 whole entry): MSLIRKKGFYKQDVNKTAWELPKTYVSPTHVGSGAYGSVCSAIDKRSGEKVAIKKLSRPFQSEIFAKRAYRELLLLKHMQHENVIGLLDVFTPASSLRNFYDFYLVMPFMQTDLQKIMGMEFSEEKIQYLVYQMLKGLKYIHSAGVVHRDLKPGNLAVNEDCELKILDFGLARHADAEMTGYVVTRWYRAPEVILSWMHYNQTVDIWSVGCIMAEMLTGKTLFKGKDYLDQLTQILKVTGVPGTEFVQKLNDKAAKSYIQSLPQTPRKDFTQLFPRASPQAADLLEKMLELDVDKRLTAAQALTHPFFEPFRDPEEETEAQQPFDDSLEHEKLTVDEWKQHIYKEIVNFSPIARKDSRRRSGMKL
Protocol: as §1

T1 sequence (Q2M2I8 whole entry): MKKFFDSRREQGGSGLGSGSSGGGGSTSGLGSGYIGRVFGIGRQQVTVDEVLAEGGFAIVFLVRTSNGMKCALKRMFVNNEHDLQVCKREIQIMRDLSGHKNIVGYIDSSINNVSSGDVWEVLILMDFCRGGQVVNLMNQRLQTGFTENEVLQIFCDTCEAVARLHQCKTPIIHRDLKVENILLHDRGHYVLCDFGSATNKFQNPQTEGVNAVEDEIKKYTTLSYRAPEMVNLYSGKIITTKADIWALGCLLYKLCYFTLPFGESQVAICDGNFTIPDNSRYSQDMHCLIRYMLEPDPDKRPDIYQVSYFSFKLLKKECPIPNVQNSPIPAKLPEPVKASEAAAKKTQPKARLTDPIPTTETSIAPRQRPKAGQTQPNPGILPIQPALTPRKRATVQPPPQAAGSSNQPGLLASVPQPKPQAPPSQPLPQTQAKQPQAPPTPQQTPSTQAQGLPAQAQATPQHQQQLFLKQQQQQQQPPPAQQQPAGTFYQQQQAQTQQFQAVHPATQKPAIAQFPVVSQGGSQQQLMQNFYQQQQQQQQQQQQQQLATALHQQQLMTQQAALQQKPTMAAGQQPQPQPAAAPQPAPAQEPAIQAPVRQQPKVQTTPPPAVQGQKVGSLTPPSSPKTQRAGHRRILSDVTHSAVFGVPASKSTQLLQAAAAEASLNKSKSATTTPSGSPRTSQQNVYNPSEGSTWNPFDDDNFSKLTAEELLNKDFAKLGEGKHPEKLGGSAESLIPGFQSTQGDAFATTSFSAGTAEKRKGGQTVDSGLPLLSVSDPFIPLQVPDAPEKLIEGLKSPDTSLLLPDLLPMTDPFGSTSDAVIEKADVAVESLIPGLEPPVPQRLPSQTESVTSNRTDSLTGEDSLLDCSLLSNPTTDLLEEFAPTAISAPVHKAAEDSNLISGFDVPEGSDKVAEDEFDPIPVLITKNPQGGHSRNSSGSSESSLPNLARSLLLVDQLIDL

SMILES: Cc1cc(Nc2ccc(F)c(CC3(C(=O)N4CCC(F)(CN5CCN(c6ccc(N7CCC(=O)NC7=O)cn6)CC5)CC4)CCN(Cc4cccc(Cl)c4F)CC3)n2)n[nH]1 [SK5527]
- remaining binding at 0.1 µM (AAK1; 100 nM): 100%
- remaining binding at 1 µM (AAK1; 1000 nM): 92%
- remaining binding at 0.1 µM (ABL1-phosphorylated; 100 nM): 67%
- remaining binding at 1 µM (ABL1-phosphorylated; 1000 nM): 48%
- remaining binding at 0.1 µM (AKT3; 100 nM): 86%
- remaining binding at 1 µM (AKT3; 1000 nM): 91%
- remaining binding at 0.1 µM (ALK(L1196M); 100 nM): 91%
- remaining binding at 1 µM (ALK(L1196M); 1000 nM): 100%
- remaining binding at 0.1 µM (ARK5; 100 nM): 83%
- remaining binding at 1 µM (ARK5; 1000 nM): 90%
- remaining binding at 0.1 µM (ASK2; 100 nM): 62%
- remaining binding at 1 µM (ASK2; 1000 nM): 56%
- remaining binding at 0.1 µM (CDC2L1; 100 nM): 98%
- remaining binding at 1 µM (CDC2L1; 1000 nM): 95%
- remaining binding at 0.1 µM (CLK3; 100 nM): 100%
- remaining binding at 1 µM (CLK3; 1000 nM): 100%
- remaining binding at 0.1 µM (CSNK1E; 100 nM): 92%
- remaining binding at 1 µM (CSNK1E; 1000 nM): 91%
- remaining binding at 0.1 µM (ERBB2; 100 nM): 100%
- remaining binding at 1 µM (ERBB2; 1000 nM): 100%
- remaining binding at 0.1 µM (ERK1; 100 nM): 94%
- remaining binding at 1 µM (ERK1; 1000 nM): 94%
- remaining binding at 0.1 µM (ERK5; 100 nM): 100%
- remaining binding at 1 µM (ERK5; 1000 nM): 93%
- remaining binding at 0.1 µM (FGFR1; 100 nM): 100%
- remaining binding at 1 µM (FGFR1; 1000 nM): 92%
- remaining binding at 0.1 µM (FGFR3; 100 nM): 96%
- remaining binding at 1 µM (FGFR3; 1000 nM): 84%
- remaining binding at 0.1 µM (FLT3; 100 nM): 90%
- remaining binding at 1 µM (FLT3; 1000 nM): 77%
- remaining binding at 0.1 µM (GRK3; 100 nM): 100%
- remaining binding at 1 µM (GRK3; 1000 nM): 100%
- remaining binding at 0.1 µM (IRAK1; 100 nM): 94%
- remaining binding at 1 µM (IRAK1; 1000 nM): 76%
- remaining binding at 0.1 µM (JNK1; 100 nM): 72%
- remaining binding at 1 µM (JNK1; 1000 nM): 95%
- remaining binding at 0.1 µM (KIT(D816V); 100 nM): 93%
- remaining binding at 1 µM (KIT(D816V); 1000 nM): 97%
- remaining binding at 0.1 µM (LRRK2; 100 nM): 100%
- remaining binding at 1 µM (LRRK2; 1000 nM): 94%
- remaining binding at 0.1 µM (MST3; 100 nM): 100%
- remaining binding at 1 µM (MST3; 1000 nM): 100%
- remaining binding at 0.1 µM (MUSK; 100 nM): 97%
- remaining binding at 1 µM (MUSK; 1000 nM): 95%
- remaining binding at 0.1 µM (MYLK4; 100 nM): 100%
- remaining binding at 1 µM (MYLK4; 1000 nM): 100%
- remaining binding at 0.1 µM (NDR2; 100 nM): 100%
- remaining binding at 1 µM (NDR2; 1000 nM): 91%
- remaining binding at 0.1 µM (PCTK3; 100 nM): 91%
- remaining binding at 1 µM (PCTK3; 1000 nM): 84%
- remaining binding at 0.1 µM (PIK3CG; 100 nM): 91%
- remaining binding at 1 µM (PIK3CG; 1000 nM): 94%
- remaining binding at 0.1 µM (PRKG2; 100 nM): 86%
- remaining binding at 1 µM (PRKG2; 1000 nM): 78%
- remaining binding at 0.1 µM (RET; 100 nM): 88%
- remaining binding at 1 µM (RET; 1000 nM): 39%
- remaining binding at 0.1 µM (STK39; 100 nM): 100%
- remaining binding at 1 µM (STK39; 1000 nM): 85%
- remaining binding at 0.1 µM (TGFBR1; 100 nM): 100%
- remaining binding at 1 µM (TGFBR1; 1000 nM): 100%
- remaining binding at 0.1 µM (TXK; 100 nM): 75%
- remaining binding at 1 µM (TXK; 1000 nM): 78%
- remaining binding at 0.1 µM ([1]; 100 nM): 79%
- remaining binding at 1 µM ([1]; 1000 nM): 81%
- remaining binding at 0.1 µM (YANK3; 100 nM): 86%
- remaining binding at 1 µM (YANK3; 1000 nM): 80%
- remaining binding at 0.1 µM (p38-delta; 100 nM): 100%
- remaining binding at 1 µM (p38-delta; 1000 nM): 100%
